Here are results for 92 molecules from PubChem BioAssay AID1159558 (GlaxoSmithKline (GSK), 2015).

pIC50: −log10 of the molar value. Calls of active or inactive are those of the source.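 How the source made its calls: active means IC50 against T. cruzi CYP51 below a set limit; inactive means the rest.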

For this test, the target named is Sterol 14-alpha demethylase (Trypanosoma cruzi (strain CL Brener)) (UniProt Q7Z1V1). Nature of the test: T. cruzi sterol 14-alpha demethylase inhibition – biochemical, recombinant enzyme, mechanism study for T. cruzi antiparasitic project, dose response (AID 1159558).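 Further: enzyme in bacterial membranes with Anopheles gambiae CYP reductase and cytochrome b5 partners.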 As to conditions: recombinant T. cruzi CYP51, BOMCC fluorescence.
Sterol 14-alpha demethylase (Trypanosoma cruzi (strain CL Brener)), sequence (Q7Z1V1 whole entry, looked up): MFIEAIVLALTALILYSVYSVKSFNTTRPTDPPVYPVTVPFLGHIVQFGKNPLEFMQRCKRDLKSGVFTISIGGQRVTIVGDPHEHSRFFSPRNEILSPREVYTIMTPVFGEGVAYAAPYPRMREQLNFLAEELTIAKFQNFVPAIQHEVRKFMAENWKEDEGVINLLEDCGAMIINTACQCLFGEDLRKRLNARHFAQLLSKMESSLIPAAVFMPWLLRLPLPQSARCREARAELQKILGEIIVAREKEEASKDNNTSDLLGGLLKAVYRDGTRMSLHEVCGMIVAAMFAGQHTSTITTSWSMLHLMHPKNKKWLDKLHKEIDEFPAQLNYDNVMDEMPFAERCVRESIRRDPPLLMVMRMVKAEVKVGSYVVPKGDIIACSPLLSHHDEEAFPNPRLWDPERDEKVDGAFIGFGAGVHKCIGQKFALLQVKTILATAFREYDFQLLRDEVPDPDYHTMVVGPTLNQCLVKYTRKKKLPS
On to `c1ccc(-c2nc(NC3CCCC3)c3ccccc3n2)nc1`, for which the IC50 was > 100 µM (inactive).

As for `Cn1nc([N+](=O)[O-])nc1N1CCCCC1`, the IC50 was > 100 µM (inactive).

Regarding `Cc1c(C(=O)NCCCCn2ccnc2)oc2c(C)cccc12`, the pIC50 was 7.00.

Regarding `Nc1nc(-c2ccccn2)nc(-n2nc(-c3cccc(C(F)(F)F)c3)cc2N)n1`, the IC50 is > 100 µM (inactive).

As to `CC1=NN(C(=O)CCn2cnc([N+](=O)[O-])n2)C(O)(C(F)(F)F)C1` (configuration not stated), the IC50 is > 100 µM (inactive).

On to `CC(Cn1ccnc1)NC(=O)C1CC1c1cccc(Cl)c1Cl` (configuration not stated), for which the negative logarithm of the IC50 (pIC50) is 6.89.

For the molecule `O=C(Nc1ccc(C(F)(F)F)cc1)NC1(C(=O)NCc2ccco2)CCCCC1`, the IC50 is > 32 µM (inactive).

Consider `CC(=O)Nc1ccc(-c2noc(CC3CCCN(Cc4cccc(F)c4C)C3)n2)cc1` (configuration not stated), for which the IC50 was > 100 µM (inactive).

In the case of `Cc1nc2c(-c3ncn[nH]3)cc(NC(=O)Cc3ccccc3)cn2c1C`, the pIC50 was 5.00.

For the molecule `CNc1c(C(N)=O)c(-c2ccc3scnc3c2)nn1CC(F)(F)F`, the IC50 is > 100 µM (inactive).

`Fc1ccc(OC2CC(NCc3cccc4cn[nH]c34)C2)cc1C(F)(F)F` (configuration not stated): the pIC50 was 6.89.

`O=C(CCCNC(=O)c1ccc(Cl)cc1)Nc1nc(-c2ccccn2)cs1`: the pIC50 was 5.49.

Turning to `CCC(CC)C(=O)Nc1cccc(C(=O)Nc2nnc(C3CCCCC3)s2)c1`, the IC50 is > 100 µM (inactive).

`O=C(c1ccc(O)c(Cl)c1)N1CCN(c2cnccn2)CC1`: the IC50 is > 100 µM (inactive).

Consider `CS(=O)(=O)c1ccc(Nc2nccc(-c3cnn4ncccc34)n2)cc1`, for which the pIC50 was 4.80.

Turning to `CCc1cccc(CC)c1-n1c(SCC(=O)NC(=O)NCc2ccco2)nnc1-c1cccnc1`, the pIC50 was 6.00.

Consider `COc1ccc(S(=O)(=O)NC(C)C)cc1Nc1ncc(-c2cccc(F)c2)cn1`, for which the IC50 is > 100 µM (inactive).

As to `O=C(NCc1nnc2n1CCCCC2)c1ccc(-c2ccc(F)cc2)o1`, the pIC50 was 4.10.

`O=C(NCc1ccc(Cl)cc1)C1CN(C(=O)c2ccc(F)cc2)CCS1` (configuration not stated): the pIC50 is 4.89.

On to `CCC(=O)Nc1ccc(C(=O)Nc2ccccc2-c2ccccc2)cc1`, for which the IC50 was > 100 µM (inactive).

`Cc1nccn1C1CCCN(C(=O)c2cc3c(F)cccc3s2)C1` (configuration not stated): the pIC50 is 4.30.

In the case of `COc1cc(C(C)C)c(S(C)(=O)=O)cc1C(=O)N1CCN(c2ccccc2Cl)CC1`, the IC50 was > 100 µM (inactive).

For the molecule `CCOC(=O)c1noc(N)c1-c1ccccc1`, the IC50 is > 100 µM (inactive).

On to `CCCCN(C(=O)c1ccc(NC(=O)C(C)C)cc1)c1ccccc1`, for which the pIC50 was 4.89.

Turning to `CC(Cn1ccnc1)NC(=O)COc1ccc(Cl)c(Cl)c1` (configuration not stated), the pIC50 was 7.20.

Regarding `Cc1cc(Nc2cc(C3CC3)[nH]n2)nc(N2CCC[C@H]2C(N)=O)n1`, the IC50 is > 100 µM (inactive).

With `COc1cc(-c2nc(N3CCOCC3)sc2-c2ccnc(NC3CCOCC3)n2)ccc1Cl`, the IC50 is > 100 µM (inactive).

Turning to `Cc1ccc(C)c(-n2nnnc2Sc2nc([N+](=O)[O-])nn2C)c1`, the IC50 is > 100 µM (inactive).

As to `CN(Cc1cccnc1)Cc1ccc(N2CCN(C(=O)C3(c4ccc(Cl)cc4)CC3)CC2)nc1`, the pIC50 is 6.80.

Take `COc1ccc(CN(C)Cc2ccncc2)cc1-c1ccc(S(=O)(=O)NC2CCC2)s1`: the pIC50 is 7.10.

Take `CCc1ccc2nc(NC(=O)c3cc(N4CCOCC4)ccn3)sc2c1`: the IC50 is > 100 µM (inactive).

Consider `Cc1nc(N2CC(C)OC(C)C2)sc1C(=O)Nc1ccc2c(c1)OCO2` (configuration not stated), for which the pIC50 was 4.40.

`Nc1cc(-c2ccc3ncnc(N4CCOCC4)c3c2)cnc1N`: the pIC50 was 4.10.

Take `CC(CCc1ccccc1)NC(=O)CN(Cc1ccccn1)Cc1ccccn1` (configuration not stated): the pIC50 is 4.20.

Regarding `O=C(c1cccc(Nc2ncc(-c3ccc4c(c3)OCO4)cn2)c1)N1CCOCC1`, the pIC50 was 4.70.

Regarding `COc1ccc(CNc2nsc3ccccc23)cc1OC`, the pIC50 was 4.89.

On to `CCCCc1cc(Nc2cc(C3CCC3)[nH]n2)nc(N2CCC2C(N)=O)n1` (configuration not stated), for which the IC50 was > 100 µM (inactive).

For the molecule `COc1ccc(CNc2cc(C3CC3)nc(-c3nccn3C)n2)cc1`, the pIC50 is 5.30.

With `CCOc1cc(NCCCN2CCN(C)CC2)c2ncccc2c1`, the IC50 is > 100 µM (inactive).

For `O=c1ccc2ccc(F)c3c2n1C[C@H]3CN1CCC(NCc2cc3ccccc3o2)CC1`, the pIC50 is 4.49.

In the case of `O=C(Nc1nccs1)c1ccccc1Cn1cc([N+](=O)[O-])cn1`, the IC50 is > 100 µM (inactive).

Regarding `NS(=O)(=O)c1ccc(Nc2ncc3cccc(OC4CCNCC4)c3n2)cc1`, the IC50 is > 100 µM (inactive).

Take `COc1ccc(Nc2nccc(N(C)c3n[nH]c4c(F)cccc34)n2)cc1S(C)(=O)=O`: the pIC50 was 4.49.

With `N#Cc1ccc(Br)cc1[N+](=O)[O-]`, the pIC50 was 4.30.

Take `COc1cccc(C(=O)[C@H]2C[C@@H]2CN(Cc2ccccn2)Cc2ccccn2)c1`: the pIC50 is 4.49.

As for `O=C1OCc2ccc(Nc3nccc(-c4cnn5ncccc45)n3)cc21`, the IC50 is > 100 µM (inactive).

Take `CN(CC1CCCO1)S(=O)(=O)c1ccc(C(=O)Nc2nc(-c3ccccn3)cs2)cc1` (configuration not stated): the pIC50 is 5.10.

Turning to `COc1ccc2ncc(=O)n(CCN3CCOC(CNCc4ccc(C(F)(F)F)cc4F)C3)c2n1` (configuration not stated), the negative-log IC50 (pIC50) was 5.00.

Take `Cc1cc(-c2cccc3ccccc23)nc2nc(N)nc(N)c12`: the IC50 was > 100 µM (inactive).

Take `COc1ccc(-c2cc(C)no2)cc1S(=O)(=O)Nc1ccc(F)c(Cl)c1`: the IC50 is > 100 µM (inactive).

Turning to `COc1ccc(C(=O)NC2CCN(CCn3c(=O)ccc4ncc(F)cc43)CC2)cc1Cl`, the pIC50 is 4.80.

`CN(Cc1nc2ccccc2s1)C(=O)C=Cc1cc2ccccc2o1`: the pIC50 was 6.80.

With `N#Cc1ccc(S(=O)(=O)N2CCC3(CCN(c4ccccc4)C3=O)CC2)cc1`, the IC50 was > 100 µM (inactive).

Consider `O=C(Nc1ncc([N+](=O)[O-])s1)C1CC1`, for which the IC50 is > 100 µM (inactive).

With `N#Cc1c(Oc2cccc(Cl)c2)cccc1[N+](=O)[O-]`, the IC50 was > 100 µM (inactive).

In the case of `OC1CCC(Nc2nccc(-c3sc(C4CCOCC4)nc3-c3ccc(F)c(F)c3)n2)CC1` (configuration not stated), the IC50 is > 100 µM (inactive).

`Cc1cccc(NS(=O)(=O)c2cnc3sc(C)cn3c2=O)c1`: the IC50 was > 100 µM (inactive).

As for `O=C1NCCn2ccc(Nc3nc(NC4CCC(O)CC4)ncc3Cl)c21` (configuration not stated), the IC50 was > 100 µM (inactive).

With `Cc1nc2c(-c3nc(-c4ccc(N)cc4)n[nH]3)cccn2c1C`, the IC50 is > 100 µM (inactive).

`CCS(=O)(=O)Nc1ccc(C2=NN(C(=O)c3cccs3)C(c3ccccc3OC)C2)cc1` (configuration not stated): the pIC50 is 4.60.

In the case of `NC(=O)c1ncccc1Nc1nc(NC2CCC(O)CC2)ncc1Br` (configuration not stated), the IC50 is > 100 µM (inactive).

Regarding `COCCn1c(-c2ccccc2)cnc1NCc1ccccc1OC`, the pIC50 is 5.10.

`O=C(CN(Cc1ccccn1)Cc1ccccn1)NC1Cc2ccccc2C1`: the pIC50 is 4.10.

As to `Cc1cc2cc(CNc3ccc4c(c3)OCO4)c(=O)n(CCO)c2cc1C`, the negative logarithm of the IC50 (pIC50) was 5.00.

Regarding `COc1ccc(CN2C(=O)C(O)(CC(=O)c3ccncc3)c3cc(Br)ccc32)cc1OC` (configuration not stated), the pIC50 is 6.30.

As to `O=[N+]([O-])c1ccc(-c2nnn(-c3ccc(Cl)cc3)n2)o1`, the IC50 is > 100 µM (inactive).

For `Cc1cc2cncn2c(C2CCCCN2C(=O)c2cccs2)n1` (configuration not stated), the pIC50 is 7.00.

As for `Cc1[nH]n2c(=O)c3c(nc2c1-c1ccc(F)cc1)CCCC3`, the IC50 was > 100 µM (inactive).

As to `Cc1cc(Oc2cc(Cl)c(Cl)cc2Cl)n2ncnc2n1`, the IC50 was > 100 µM (inactive).

`CCN(Cc1nc2ccc(C(=O)N3CCN(c4ncccn4)CC3)cc2[nH]1)C1CCCc2cccnc21` (configuration not stated): the pIC50 was 5.10.

Turning to `Cc1cccc(Nc2nc(-c3ccccn3)cs2)n1`, the pIC50 was 4.70.

As to `COc1cc(-c2noc(CC#N)n2)ccc1OC(F)F`, the pIC50 is 4.00.

Regarding `Cc1ccccc1NS(=O)(=O)c1ccc2[nH]cc(C(=O)NC3CCCCC3)c(=O)c2c1`, the pIC50 is 5.00.

With `CC(c1cc(Cl)cc(Cl)c1)N(C)c1ncc2c(N)nc(N)nc2n1` (configuration not stated), the pIC50 was 4.40.

`Cn1nccc1NC(=O)Cn1ccc(-c2ccncc2)n1`: the pIC50 was 5.20.

`O=C(c1ccc(OCCCc2cnc[nH]2)cc1)C1CC1`: the pIC50 was 7.30.

As for `COc1ccc(NS(=O)(=O)c2cccc(NC(=O)c3cc(F)cc(F)c3)c2)cc1`, the IC50 is > 100 µM (inactive).

In the case of `Cn1ccnc1CN1CCc2[nH]cnc2C1c1ccccc1OCc1ccccc1` (configuration not stated), the pIC50 is 5.10.

On to `Cc1[nH]n2c(=O)c3c(nc2c1-c1ccc(Cl)cc1)CCCC3`, for which the IC50 is > 100 µM (inactive).

As to `COc1ccccc1CNc1cc(C2CC2)nc(-c2nccn2C)n1`, the pIC50 was 4.70.

With `CN(Cc1ccc(F)cc1)c1ccc(OCC(=O)N2CCCCC2c2cccnc2)nn1` (configuration not stated), the pIC50 was 7.30.

On to `COc1ccc(-c2csc(NC(=O)c3ccc([N+](=O)[O-])s3)n2)cc1OC`, for which the IC50 was > 100 µM (inactive).

Regarding `NC(=O)c1cc(F)ccc1Nc1nc(NC2CCC(O)CC2)ncc1Br` (configuration not stated), the pIC50 was 5.00.

`COc1ccc2nccc(NC(=O)C3(OC)CCN(CC(O)c4ccc5c(c4)OCCO5)CC3)c2n1` (configuration not stated): the pIC50 is 6.00.

With `CC(C)Oc1ccc(C(=O)Nc2ccc(N3CCOCC3)c(Cl)c2)cc1`, the IC50 is > 100 µM (inactive).

As to `CCC1Oc2cc(S(=O)(=O)N(C)CC(=O)N3CCc4ccccc4C3)c(C)cc2NC1=O` (configuration not stated), the pIC50 is 6.10.

For the molecule `COc1cc(F)c2ncc(F)c(CCN3CC[C@H](NCc4cc5c(cn4)OCS5)[C@@H](O)C3)c2c1`, the pIC50 was 4.49.

With `O=C(Nc1ccc(C(F)(F)F)cc1)Nc1cccc([N+](=O)[O-])c1`, the pIC50 is 5.20.

As to `CC(C)(C)c1cc(NC2CC2)nc(-c2ccccn2)n1`, the IC50 is > 100 µM (inactive).

For the molecule `CCNc1cc(-c2ccccn2)nc(Nc2ccccc2)n1`, the IC50 is > 100 µM (inactive).

Consider `c1ccc(CCNCc2cncc3nc(-c4cnccn4)n(C4CCCCC4)c23)cc1`, for which the pIC50 is 7.00.

In the case of `COc1cc(OC)cc(C(=O)N[C@@H](CC(C)C)C(=O)NC2(C#N)CC2)c1`, the IC50 is > 100 µM (inactive).

By IC50 is commonly meant the concentration that inhibits the measured activity by half. As a reminder, the pIC50 is the negative decadic logarithm of the IC50, by convention in mol/L.
